Reference: ChEMBL document CHEMBL5113527, “First-in-Class Hydrazide-Based HDAC6 Selective Inhibitor with Potent Oral Anti-Inflammatory Activity by Attenuating NLRP3 Inflammasome Activation” (J Med Chem, 2022)
The source made the active and inactive calls. The calls are words filed in the database; no cut-off is given here.

Columns and labels:
Histone deacetylase 5 = Histone deacetylase 5 (Homo sapiens, UniProt Q9UQL6); test: Inhibition of recombinant HDAC5 (unknown origin) using Boc-Lys (trifluoroacetyl) AMC as substrate preincubated for 1 hr followed by substrate addition and measured after 2 hrs by fluorescence based microplate reader analysis
Histone deacetylase 5, sequence (Q9UQL6 whole entry): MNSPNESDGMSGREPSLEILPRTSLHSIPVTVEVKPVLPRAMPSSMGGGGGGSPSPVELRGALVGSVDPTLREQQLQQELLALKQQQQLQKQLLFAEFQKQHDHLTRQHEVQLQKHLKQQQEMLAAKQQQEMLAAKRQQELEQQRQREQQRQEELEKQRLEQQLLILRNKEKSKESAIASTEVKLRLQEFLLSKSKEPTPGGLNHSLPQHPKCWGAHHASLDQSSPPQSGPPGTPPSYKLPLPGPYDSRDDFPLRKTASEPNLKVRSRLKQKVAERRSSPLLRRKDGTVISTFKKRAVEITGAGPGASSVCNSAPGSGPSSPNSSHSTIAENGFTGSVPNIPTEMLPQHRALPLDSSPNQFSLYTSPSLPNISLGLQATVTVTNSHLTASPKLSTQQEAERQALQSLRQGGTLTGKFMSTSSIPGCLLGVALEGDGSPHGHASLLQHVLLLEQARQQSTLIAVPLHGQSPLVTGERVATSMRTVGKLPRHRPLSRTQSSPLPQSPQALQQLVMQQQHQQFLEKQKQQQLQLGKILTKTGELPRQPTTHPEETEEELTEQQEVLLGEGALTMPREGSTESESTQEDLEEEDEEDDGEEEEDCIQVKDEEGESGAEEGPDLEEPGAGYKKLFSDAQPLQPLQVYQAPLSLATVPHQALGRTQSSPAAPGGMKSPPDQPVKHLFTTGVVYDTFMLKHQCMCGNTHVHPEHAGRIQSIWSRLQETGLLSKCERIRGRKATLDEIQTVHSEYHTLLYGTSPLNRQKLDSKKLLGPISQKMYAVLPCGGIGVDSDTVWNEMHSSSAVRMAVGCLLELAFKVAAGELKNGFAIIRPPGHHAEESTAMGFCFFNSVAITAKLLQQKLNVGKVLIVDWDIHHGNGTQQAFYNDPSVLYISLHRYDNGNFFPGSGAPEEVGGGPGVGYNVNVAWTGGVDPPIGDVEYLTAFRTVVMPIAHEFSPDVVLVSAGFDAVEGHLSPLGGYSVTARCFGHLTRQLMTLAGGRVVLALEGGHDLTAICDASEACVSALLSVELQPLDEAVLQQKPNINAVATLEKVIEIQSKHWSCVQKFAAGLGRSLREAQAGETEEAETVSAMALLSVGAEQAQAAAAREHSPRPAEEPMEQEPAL

[1] = target: T1, Protein deacetylase HDAC6 (Homo sapiens, UniProt Q9UBN7); test: Inhibition of recombinant HDAC6 (unknown origin) using Boc-Lys(acetyl)-AMC as substrate preincubated for 1 hr followed by substrate addition and measured after 2 hrs by fluorescence based microplate reader analysis
T1 sequence (Q9UBN7 whole entry): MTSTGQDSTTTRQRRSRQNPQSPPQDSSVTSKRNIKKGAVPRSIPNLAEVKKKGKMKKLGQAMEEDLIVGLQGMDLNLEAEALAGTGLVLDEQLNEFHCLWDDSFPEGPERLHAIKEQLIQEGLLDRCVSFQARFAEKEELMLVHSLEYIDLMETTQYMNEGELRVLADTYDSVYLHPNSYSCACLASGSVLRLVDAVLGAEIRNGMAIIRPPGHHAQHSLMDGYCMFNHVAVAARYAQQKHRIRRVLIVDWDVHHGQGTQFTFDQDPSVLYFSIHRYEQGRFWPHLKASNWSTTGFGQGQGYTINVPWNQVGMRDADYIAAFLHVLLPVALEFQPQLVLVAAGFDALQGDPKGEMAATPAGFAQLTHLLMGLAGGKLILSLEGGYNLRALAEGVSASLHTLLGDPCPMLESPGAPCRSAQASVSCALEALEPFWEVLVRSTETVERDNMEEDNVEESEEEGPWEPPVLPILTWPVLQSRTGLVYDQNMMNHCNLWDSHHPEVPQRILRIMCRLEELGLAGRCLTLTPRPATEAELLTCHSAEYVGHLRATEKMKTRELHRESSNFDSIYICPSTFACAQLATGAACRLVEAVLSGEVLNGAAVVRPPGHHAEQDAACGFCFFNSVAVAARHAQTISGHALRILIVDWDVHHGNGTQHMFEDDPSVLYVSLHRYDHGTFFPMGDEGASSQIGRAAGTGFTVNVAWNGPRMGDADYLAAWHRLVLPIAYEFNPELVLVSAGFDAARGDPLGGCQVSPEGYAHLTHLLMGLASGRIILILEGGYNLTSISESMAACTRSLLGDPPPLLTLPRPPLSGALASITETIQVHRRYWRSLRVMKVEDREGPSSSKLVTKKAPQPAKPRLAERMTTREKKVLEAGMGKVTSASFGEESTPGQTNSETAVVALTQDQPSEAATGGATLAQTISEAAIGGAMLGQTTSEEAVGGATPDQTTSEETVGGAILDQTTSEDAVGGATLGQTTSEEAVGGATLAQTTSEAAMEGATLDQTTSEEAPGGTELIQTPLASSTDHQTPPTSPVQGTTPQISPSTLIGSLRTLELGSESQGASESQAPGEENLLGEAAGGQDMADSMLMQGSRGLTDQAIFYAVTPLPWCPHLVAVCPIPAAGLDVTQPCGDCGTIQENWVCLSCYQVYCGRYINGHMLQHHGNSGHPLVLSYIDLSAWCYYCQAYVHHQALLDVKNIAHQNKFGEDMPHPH

Histone deacetylase 7 = target: T2, Histone deacetylase 7 (Homo sapiens, UniProt Q8WUI4); test: Inhibition of recombinant HDAC7 (unknown origin) using Boc-Lys (trifluoroacetyl) AMC as substrate preincubated for 1 hr followed by substrate addition and measured after 2 hrs by fluorescence based microplate reader analysis
T2 sequence (Q8WUI4 whole entry): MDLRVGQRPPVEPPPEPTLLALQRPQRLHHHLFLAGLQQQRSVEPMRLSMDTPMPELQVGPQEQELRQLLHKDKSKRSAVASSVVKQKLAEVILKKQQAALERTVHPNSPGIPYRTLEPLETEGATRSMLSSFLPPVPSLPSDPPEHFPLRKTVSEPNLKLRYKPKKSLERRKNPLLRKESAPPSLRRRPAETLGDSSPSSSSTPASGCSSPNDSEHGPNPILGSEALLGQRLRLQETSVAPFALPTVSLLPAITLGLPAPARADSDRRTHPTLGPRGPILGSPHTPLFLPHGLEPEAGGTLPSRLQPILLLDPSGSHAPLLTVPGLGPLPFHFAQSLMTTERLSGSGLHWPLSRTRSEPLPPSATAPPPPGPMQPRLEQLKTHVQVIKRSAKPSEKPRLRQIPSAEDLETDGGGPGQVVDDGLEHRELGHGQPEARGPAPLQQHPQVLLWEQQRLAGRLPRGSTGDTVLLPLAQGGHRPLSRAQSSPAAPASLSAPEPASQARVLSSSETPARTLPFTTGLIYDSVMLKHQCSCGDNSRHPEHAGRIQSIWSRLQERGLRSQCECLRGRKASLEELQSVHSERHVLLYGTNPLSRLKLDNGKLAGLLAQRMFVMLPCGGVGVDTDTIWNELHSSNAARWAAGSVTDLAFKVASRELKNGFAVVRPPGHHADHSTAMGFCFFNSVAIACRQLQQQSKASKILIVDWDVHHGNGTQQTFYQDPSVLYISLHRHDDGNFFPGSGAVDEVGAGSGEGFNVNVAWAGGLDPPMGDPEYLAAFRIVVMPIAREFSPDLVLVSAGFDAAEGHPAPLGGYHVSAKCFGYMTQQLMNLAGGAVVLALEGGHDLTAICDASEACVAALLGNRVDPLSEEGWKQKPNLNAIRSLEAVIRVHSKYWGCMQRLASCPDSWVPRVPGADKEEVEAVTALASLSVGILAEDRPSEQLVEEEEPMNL

[2] = Inhibition of HDAC11(unknown origin) preincubated for 1 hr followed by substrate addition and measured after 2 hrs by fluorescence based microplate reader analysis; design: species or system Homo sapiens
[3] = Acute toxicity in LPS-induced endotoxic shock C57BL/6 mouse model assessed as effect on body weight at 500 mg/kg, po administered as single dose for 15 days; assay type: organism-based; settings: in vivo, 360 h, time 15 day
L02 = test: Cytotoxicity against human HL7702 cells assessed as reduction in cell viability at 100 uM measured after 48 hrs by spectrophotometric analysis; assay type: toxicity, cell-based; settings: l02, 48 h
Mus musculus = test: Inhibition of LPS-induced endotoxic shock in C57BL/6 mouse model serum assessed as decrease in IL-1beta level at 20 mg/kg, po measured after 12 hrs; assay type: functional, organism-based
[4] = Plasma concentration in CD-1 mouse at 20 mg/kg measured after 1 hrs by LC-MS/MS analysis; assay type: ADME, organism-based
[5] = Plasma concentration in CD-1 mouse at 20 mg/kg measured after 2 hrs by LC-MS/MS analysis; assay type: ADME, organism-based
[6] = Ratio of drug concentration in brain to plasma of CD-1 mouse measured after 2 hrs by LC-MS/MS analysis; assay type: ADME; settings: read-out: BPR
[7] = Plasma concentration in CD-1 mouse at 20 mg/kg measured after 4 hrs by LC-MS/MS analysis; assay type: ADME, organism-based
Histone deacetylase 2 = Histone deacetylase 2 (Homo sapiens, UniProt Q92769); test: Binding affinity to recombinant HDAC2 (unknown origin) assessed as inhibition constant using Boc-Lys(acetyl)-AMC as substrate preincubated for 1 hr followed by substrate addition and measured after 2 hrs by fluorescence based microplate reader analysis
Histone deacetylase 2, sequence (Q92769 whole entry): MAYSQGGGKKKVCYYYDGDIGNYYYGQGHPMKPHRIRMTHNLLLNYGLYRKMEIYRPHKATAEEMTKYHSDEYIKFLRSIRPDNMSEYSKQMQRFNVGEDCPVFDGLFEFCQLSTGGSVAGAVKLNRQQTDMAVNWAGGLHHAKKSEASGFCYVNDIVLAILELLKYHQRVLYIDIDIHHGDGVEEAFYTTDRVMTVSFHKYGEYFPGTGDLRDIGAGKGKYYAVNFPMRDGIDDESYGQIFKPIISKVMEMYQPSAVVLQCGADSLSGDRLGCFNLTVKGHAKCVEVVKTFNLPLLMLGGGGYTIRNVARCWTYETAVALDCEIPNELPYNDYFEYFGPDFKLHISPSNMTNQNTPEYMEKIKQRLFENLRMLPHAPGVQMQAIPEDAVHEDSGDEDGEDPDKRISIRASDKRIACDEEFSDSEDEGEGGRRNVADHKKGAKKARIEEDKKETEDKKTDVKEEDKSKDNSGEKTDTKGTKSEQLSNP

CCNNC(=O)c1ccc(CN2c3ccccc3C=Cc3ccncc32)cc1
IC50 (Histone deacetylase 5): > 5000 nM | IC50 [1]: 19 nM | IC50 (Histone deacetylase 7): > 5000 nM | IC50 [2]: > 5000 nM | Activity [3]: Non-Toxic | Activity (L02): Non-Toxic | Activity (Mus musculus): Active | concentration at 1 h [4]: 5880 ng/mL | concentration at 2 h [5]: 2320 ng/mL | Kp at 2 h [6]: 1.42 | concentration at 4 h [7]: 162 ng/mL | Ki (Histone deacetylase 2): 1040 nM
